Laboratory results published in PubChem BioAssay (NCI).
Where “and” joins values, the source holds several entries; their conditions need not be identical. Equal entries are not always repeated.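 Values below derive from 48-hour exposures of cells grown in 96-well plates, with endpoints linearly interpolated between the two concentrations bracketing the appropriate inhibition level. The concentration for 50% growth inhibition is given as GI50. TGI is the concentration that stops growth completely.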

Tests used:
Test in all cases: DTP human tumour cell line panel, 48 h
[1] = tested on: KM12 colon
[2] = tested on: SW-620 colon
[3] = tested on: RXF 393 renal
[4] = tested on: SK-MEL-5 melanoma
[5] = tested on: IGROV1 ovarian
[6] = tested on: SN12C renal
[7] = tested on: CAKI-1 renal
[8] = tested on: SF-295 CNS
[9] = tested on: HT29 colon
[10] = tested on: CCRF-CEM leukemia

| Structure (SMILES) | GI50 [1] | TGI [1] | GI50 [2] | TGI [2] | GI50 [3] | TGI [3] | GI50 [4] | TGI [4] | GI50 [5] | TGI [5] | GI50 [6] | TGI [6] | GI50 [7] | TGI [7] | GI50 [8] | TGI [8] | GI50 [9] | TGI [9] | GI50 [10] | TGI [10] |
| --- | --- | --- | --- | --- | --- | --- | --- | --- | --- | --- | --- | --- | --- | --- | --- | --- | --- | --- | --- | --- |
| O=C([CH-]C(=O)c1ccccc1)c1ccccc1.O=C([CH-]C(=O)c1ccccc1)c1ccccc1.[CH2-]CCC.[CH2-]CCC.[Sn+4] | 0.728 µM | 2.28 µM | 0.133 µM | 0.325 µM | 0.128 µM | 0.416 µM | 0.25 µM | 1.21 µM | 1.21 µM | 2.79 µM | 0.509 µM | 1.75 µM | 0.067 µM | 0.462 µM | 1.12 µM | 2.35 µM |  |  |  |  |
| CN(CCNc1ccc(C(=N)N)cc1)c1ccc(C(=N)N)cc1 | 38.3 µM | > 100 µM | > 100 µM | > 100 µM |  |  | 13.2 µM | 28.3 µM | 68.8 µM | > 100 µM | 5.53 µM | > 100 µM | 2.7 µM | 37.3 µM | 5.8 µM | 60.2 µM | 80.8 µM | > 100 µM | 88.8 µM | > 100 µM |
| N#CC1(C#N)C2C=CC(C3CC=CC32)C1(C#N)C#N (stereo unspecified) |  |  | 2.64 µM | 5.03 µM and 22.6 µM |  | 8.29 µM and 13.4 µM | 8.61 µM | 15.6 µM |  | 16.5 µM |  | 18.4 µM | 8.5 µM | 3.72 µM and 18.5 µM |  | > 50 µM |  | 21.9 µM |  | 3.43 µM |
| Cc1cc2c(=O)cc(-c3ccc(O)cc3)oc2c(C(=O)O)c1C |  | > 100 µM |  | > 100 µM |  |  |  | > 100 µM |  | > 100 µM |  | > 100 µM |  | 69.2 µM |  | > 100 µM |  | > 100 µM |  | > 100 µM |
| COc1ccc(C(=O)O[C@@H]2CCN3CC[C@H](C)[C@H]23)cc1 |  | > 100 µM |  | > 100 µM |  | > 100 µM |  | > 100 µM |  | > 100 µM |  | > 100 µM |  | > 100 µM |  | > 100 µM |  | > 100 µM |  |  |
| CC12OC(C(=O)C13CC3)C1C(=O)c3cccc(O)c3C(=O)C12 (stereo unspecified) | 13.8 µM | 38.1 µM | 4.41 µM | > 100 µM | 1.43 µM | 9.3 µM | 6.79 µM | > 100 µM | 12.2 µM | > 100 µM | 4.96 µM | 18.9 µM | 3.43 µM | 11.1 µM | 2.68 µM | 22.6 µM | 10.6 µM | > 100 µM |  |  |
| Nc1cc2c(c3ccccc13)C(CCl)CN2C(=O)c1cc2cc(NC(=O)c3cc4ccccc4o3)ccc2[nH]1 (stereo unspecified) | > 0.11 µM | 0.0235 µM and < 0.11 µM |  |  |  |  |  |  |  |  | > 0.11 µM | 1.67 µM | > 0.11 µM | < 0.11 µM |  |  |  |  |  |  |
| CCOC(=O)c1cc2c(OC)cc(OC)cc2oc1=O |  |  |  | > 100 µM |  | > 100 µM |  | > 100 µM |  | > 100 µM |  | > 100 µM |  | > 100 µM |  | > 100 µM |  | > 100 µM |  | > 100 µM |
| Oc1c(CCl)cc(Cl)cc1Cc1cc(Cl)cc(Cc2cc(Cl)cc(CCl)c2O)c1O | 3.43 µM | 13.5 µM | 3.92 µM | 14.2 µM | 2.59 µM | 9.43 µM | 1.91 µM | 4.19 µM | 3.79 µM | 16.7 µM | 2.56 µM | 8.79 µM | 3.37 µM | 17.7 µM | 3.66 µM | 34.7 µM | 5.37 µM | 17.6 µM |  |  |
| ClCCN(CCCl)c1ccc(OCc2ccccc2)cc1 | 14.2 µM | 36.7 µM | 6.46 µM | 65.8 µM |  |  | 6.62 µM | 20.6 µM | 7.03 µM | 64 µM | 2.76 µM | 58.6 µM | 0.709 µM | 66.5 µM | 1.79 µM | > 100 µM | 13.4 µM | 49.8 µM | 2.36 µM | 27.6 µM |
| Cc1cc2c(=O)cc(-c3ccc(C(=O)O)cc3)oc2c(C(N)=O)c1C |  | > 100 µM |  | > 100 µM |  |  |  | > 100 µM |  | > 100 µM |  | > 100 µM |  |  |  | > 100 µM |  | > 100 µM |  | > 100 µM |
| CC[n+]1c(/C=C/c2ccc(N3CCCC3)cc2)cccc1/C=C/c1ccc(N2CCCC2)cc1 | 0.116 µM | 0.238 µM | 0.287 µM and 0.233 µM | 1.11 µM and 1.03 µM | 0.207 µM | 1.51 µM | 0.116 µM | 0.274 µM | 0.532 µM | 2.4 µM | 0.217 µM and 0.271 µM | 1.14 µM and 1.06 µM | 0.145 µM | 1.36 µM | 0.263 µM | 1.9 µM | 0.115 µM | 0.375 µM |  |  |
| Nc1n[nH]c2ccc([C@H]3[C@@H]4C5CCC(C5)[C@@H]4c4c(ccc5[nH]ncc45)N3S(=O)(=O)C3CC3)cc12 (stereo partly specified) | 0.199 µM | 6.32 µM | 0.203 µM | > 33.7 µM |  |  | 0.251 µM | 1.29 µM | 0.269 µM | > 38.7 µM | 0.272 µM | > 50 µM | 0.156 µM | 3.42 µM | 0.136 µM | 1.32 µM | 0.171 µM | 8.52 µM | 0.168 µM | > 21.3 µM |
| COc1ncnn2ccc(-c3cnc4nc(C)n(Cc5nnc(C(C)F)o5)c4c3)c12 (stereo unspecified) | 0.116 µM | > 100 µM | 0.0511 µM | > 100 µM | 0.247 µM | 0.665 µM |  |  | 0.235 µM | > 64.3 µM | 0.255 µM | > 58.1 µM | 0.0613 µM | > 100 µM | 0.326 µM | 8.04 µM | 0.253 µM | 0.631 µM | 0.11 µM | > 74.6 µM |
| O=C(NC(=S)Nc1ccc(-c2nc3ccccc3[nH]2)cc1)c1ccc2ccccc2c1 | 6.49 µM | > 100 µM | 4.2 µM | > 100 µM | 1.92 µM | 3.77 µM | 3.63 µM | > 100 µM | 7.66 µM | > 100 µM | 3.18 µM | 9.81 µM | 1.96 µM | 4.58 µM |  |  | 4.61 µM | > 100 µM | 6 µM | > 100 µM |
| CCOc1ccc(N=C2NC(=O)C(CC(=O)Nc3ccc(Cl)cc3Cl)S2)cc1 (stereo unspecified) |  | > 100 µM |  | > 100 µM |  |  |  | > 100 µM |  | > 100 µM |  | > 100 µM |  | > 100 µM |  | > 100 µM |  | > 100 µM |  | > 100 µM |
| CN1C(=O)CNS1(=O)=O |  | > 100 µM |  | > 100 µM |  | > 100 µM |  | > 100 µM |  | > 100 µM |  | > 100 µM |  |  |  | > 100 µM |  | > 100 µM |  | > 100 µM |
